Measurements published in US4439444A, “Amidobenzamides, their salts and pharmaceutical compositions containing them” (Sanofi, priority 1981, dated 1984).
Entries after “also recorded” stand apart in the source; their conditions may differ. Read-outs that look alike come from different tables or passages of the source.

How the values were obtained:
[1] = molecular target: T1, gastric histamine H2 receptors (Rattus norvegicus, UniProt P25102); assay: antisecretory activity: antagonism of histamine-induced gastric acid hypersecretion in rat (Ghosh and Schild); format: in vivo; details: for Relative potency (cimetidine = 1): gastric H2, from ID50, rat i.v.; for ED50: rat, read-out: ID50 (dose which inhibits by 50% the gastric hypersecretion induced by histamine); for antisecretory (gastric H2 blocking) activity in words: comparison from Table I
T1 construct: the gastric secretion is measured by perfusion of a physiological solution at a constant speed in the stomach of the animal; from tissue; host or cells: stomach of the living rat (in vivo, intravenous histamine infusion)
Protocol: According to this test, a gastric acid hypersecretion is induced by intravenous infusion of a sub-maximal dose of histamine equivalent to 15 mcmol/kg/hour and the gastric secretion is measured by perfusion of a physiological solution at a constant speed in the stomach of the animal.
Such a ID50 represents the index of the gastric H2 blocking action.

[2] = molecular target: T2, cardiac histamine H2 receptors (Cavia porcellus, UniProt P47747); assay: inhibition of the increase in frequency induced by histamine on the isolated right atrium of the guinea pig; format: cell-based; details: for Relative potency (cimetidine = 1): cardiac H2, from IC50, guinea pig right atrium
T2 construct: induced by histamine on the isolated right atrium of the guinea pig; from tissue; host or cells: isolated right atrium of the guinea pig
Excerpt: Such an IC50 represents the index of cardiac H2 blocking action.

[3] = test system: immature Sprague Dawley rats, castrated, testosterone-stimulated genitals and levator ani muscle; details: rat, in vivo, ip, 200 mg/kg/day
Protocol: Testosterone was administered by sub-cutaneous route, suspended in a vehicle for steroids, both at the dose of 0.2 mg/animal/day, and 0.4 mg/animal/day. […] As a control it was used a lot of animals treated with the vehicles only. The treatment lasted 8 days. The animals were killed 24 hours after the last injection, the ventral prostrate, the seminal vescicles and the levator ani were immediately drawn and weighed.

cardiac H2 receptors = details: Clinica Terapeutica, 1981, 96, 81-91; cited from earlier work
gastric acid secretion = details: rat; as oxalate; cited from earlier work
[4] = intravenous route, single administration, histamine infusion 15 mcmol/kg/hour

T2 sequence (P47747 whole entry): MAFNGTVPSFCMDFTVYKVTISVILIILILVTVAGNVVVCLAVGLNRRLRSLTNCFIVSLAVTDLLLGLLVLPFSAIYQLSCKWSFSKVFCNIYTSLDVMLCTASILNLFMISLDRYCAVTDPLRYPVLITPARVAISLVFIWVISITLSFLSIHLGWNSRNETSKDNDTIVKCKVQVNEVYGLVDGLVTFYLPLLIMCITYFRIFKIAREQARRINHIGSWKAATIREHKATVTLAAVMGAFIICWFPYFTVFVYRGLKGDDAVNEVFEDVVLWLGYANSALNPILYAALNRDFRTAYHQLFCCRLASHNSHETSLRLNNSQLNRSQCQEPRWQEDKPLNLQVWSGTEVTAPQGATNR
T1 sequence (P25102 whole entry, the tested form may be a part): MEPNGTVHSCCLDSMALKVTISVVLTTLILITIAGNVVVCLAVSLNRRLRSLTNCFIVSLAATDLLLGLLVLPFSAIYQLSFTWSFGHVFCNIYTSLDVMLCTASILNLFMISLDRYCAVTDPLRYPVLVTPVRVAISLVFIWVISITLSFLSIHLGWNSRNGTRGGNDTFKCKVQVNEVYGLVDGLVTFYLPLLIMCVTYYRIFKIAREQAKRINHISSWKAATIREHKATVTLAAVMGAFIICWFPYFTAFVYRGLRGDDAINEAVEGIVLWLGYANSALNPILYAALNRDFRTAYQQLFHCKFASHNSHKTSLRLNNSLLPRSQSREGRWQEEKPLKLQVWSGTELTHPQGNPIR

| Compound | Relative potency (cimetidine = 1) [1] | ED50 [1, 4] | Relative potency (cimetidine = 1) [2] | other results |
| --- | --- | --- | --- | --- |
| CN(C)Cc1ccc(CSCCNC(=O)c2cccc(NS(C)(=O)=O)c2)o1 [CM 57822, 3-methanesulfonamido-N-[2-(5-dimethylaminomethylfuran-2-ylmethylthio)ethyl]benzamide] | 0.97 | 0.98 µmol/kg | 0.2 | – |
| CN(C)Cc1ccc(CSCCNC(=O)c2cccc(NS(=O)(=O)c3ccccc3)c2)o1 [CM 57888, 3-benzenesulfonamido-N-[2-(5-dimethylaminomethylfuran-2-ylmethylthio)ethyl]benzamide] | – | – | – | effect when testosterone was administered at the dose of 0.4 mg/animal/day [3]: did not exhibit any effect |
| CN/C(=N/CCSCc1nc[nH]c1C)NC#N [Cimetidine, 2-cyano-1-methyl-3-[2[(5-methylimidazol-4-yl)methylthio]ethyl]guanidine, reference compound] | – | – | – | ED50 ([1]; iv): 0.95 µmol/kg; side effects in the treatment of the ulcerous disease (cardiac H2 receptors): bradycardia and of the asystolia observed as side effects |
| CN(C)Cc1ccc(CSCCNC(=O)c2ccc(S(N)(=O)=O)cc2)o1 [Compound A, N-[2-(5-dimethylaminomethylfuran-2-ylmethylthio)ethyl]-4-sulfamoyl benzamide, reference compound] | 0.42 | 2.26 µmol/kg | 1.3 | cardiac H2 blocking activity in words (compared with cimetidine) ([2]; comparison from Table II): more active |
| CN(C)Cc1ccc(CSCCNC(=O)c2ccc(S(N)(=O)=O)cc2)o1 [N-[2-(5-dimethylaminomethylfuran-2-ylmethylthio)ethyl]-4-sulfamoylbenzamide] | – | – | – | ED50 in the gastric acid secretion inhibiting activity (gastric acid secretion): 2.54 mg/kg |
| CNC(=C[N+](=O)[O-])NCCSCc1ccc(CN(C)C)o1 [Ranitidine, N-[2[[5-[(dimethylamino)methyl]furfuryl]thio]ethyl]-N'-methyl-2-nitro-1,1-ethenediamine, reference compound] | 3.80 | – | 5 | ED50 ([1]; iv): 0.25 µmol/kg |
| CN(C)Cc1ccc(CSCCNC(=O)c2cccc(NC(=O)c3ccc[n+]([O-])c3)c2)o1 [SR 57912, 3-[(3-pyridine 1-oxyde)carboxamido]-N-[2-(5-dimethylaminomethylfuran-2-ylmethylthio)ethyl]benzamide] | 2.88 | 0.33 µmol/kg | 0.08 | antisecretory (gastric H2 blocking) activity in words [1]: very powerful; also recorded: very close to that of ranitidine |
| CN(C)Cc1ccc(CSCCNC(=O)c2cccc(NC(=O)c3cccs3)c2)o1 [SR 57922, 3-(2-thienylcarboxamido)-N-[2-(5-dimethylaminomethylfuran-2-ylmethylthio)ethyl]benzamide] | 0.82 | 1.15 µmol/kg | 0.06 | – |
| CN(C)Cc1ccc(CSCCNC(=O)c2cccc(NC(=O)c3cccnc3)c2)o1.O=C(O)C(=O)O.O=C(O)C(=O)O [SR 57927 A, 3-(3-pyridinecarboxamido)-N-[2-(5-dimethylaminomethylfuran-2-ylmethylthio)ethyl]benzamide dioxalate] | 0.82 | – | – | ED50 ([1]; iv): 1.15 µmol/kg |
| CN(C)Cc1ccc(CSCCNC(=O)c2cccc(NS(=O)(=O)c3cccnc3)c2)o1 [SR 57933, 3-(3-pyridinesulfonamido)-N-[2-(5-dimethylaminomethylfuran-2-ylmethylthio)ethyl]benzamide] | 0.52 | 1.82 µmol/kg | – | – |
| CN(C)Cc1ccc(CSCCNC(=O)c2cccc(NS(=O)(=O)c3cccs3)c2)o1 [SR 57975, 3-(2-thiophenesulfonamido)-N-[2-(5-dimethylaminomethylfuran-2-ylmethylthio)ethyl]benzamide] | 1.02 | 0.93 µmol/kg | – | – |
| CCCCS(=O)(=O)Nc1cccc(C(=O)NCCSCc2ccc(CN(C)C)o2)c1 [SR 57981 A, 3-butanesulfonamido-N-[2-(5-dimethylaminomethylfuran-2-ylmethylthio)ethyl]benzamide] | 1.94 | 0.49 µmol/kg | – | antisecretory (gastric H2 blocking) activity in words [1]: very powerful |
